Reference: US8822463B2, “Methylcyclohexane derivatives and uses thereof” (Sk Biopharmaceuticals Co., Ltd., priority 2010, dated 2014)
Where a name gives a salt, the structure may show the parent alone.

Key:
[1] = test system: LPS-induced NO production in mouse microglia (BV2); assay: LPS-induced NO production inhibition test, mouse microglia (BV2); format: cell-based; settings: BV-2, BV2 cells, 20 ng/ml LPS, 24 hours, Griess reagent
Procedure: (§1) Mouse monocytes (RAW) and mouse microglia (BV2) cells were cultured on a 96-well transparent plate (Nunc) in such a way that each of the wells contained 60,000 and 35,000 cells respectively. After 18 hours, when stabilized, the cells were treated with lipopolysaccharide (Sigma, USA, Cat No. L2630) in a morbid state derived from 20 ng/ml of Escherichia coli O111:B4 and 4 different concentrations (50 uM, 12.5 uM, 3.1 uM, and 0.8 uM) of the compounds synthesized according to Examples 1 to 55. Then, the cells were cultured for 24 hours, and a concentration of increased NO was measured. The NO concentration was determined by measuring absorption at a wavelength of 540 nm after a Griess reagent including 0.1% N-(1-naphthyl)ethylenediamine dihydrochloride, 1% sulfanilamide, and 2.5% phosphoric acid were added thereto.

[2] = test system: LPS-induced NO production in mouse monocytes (RAW); assay: LPS-induced NO production inhibition test, mouse monocytes (RAW); format: cell-based; settings: Monocyte, RAW cells, 20 ng/ml LPS, 24 hours, Griess reagent
Procedure: as §1

| Compound | IC50 [1] [µM] | IC50 [2] [µM] |
| --- | --- | --- |
| O=C(NCCc1ccccc1)OC1CCC(COC(=O)N2CCCC2)CC1 (centres unmarked) [Example 1, pyrrolidine-1-carboxylic acid 4-phenethylcarbamoyloxy-cyclohexylmethyl ester] | 19.9 | 27.9 |
| O=C(NCCc1ccccn1)OC1CCC(COC(=O)N2CCCC2)CC1 (centres unmarked) [Example 2, pyrrolidine-1-carboxylic acid 4-(2-pyridin-2-yl-ethylcarbamoyloxy)-cyclohexylmethyl ester] | 40.1 | > 50 |
| O=C(NCCc1cccnc1)OC1CCC(COC(=O)N2CCCC2)CC1 (centres unmarked) [Example 3, pyrrolidine-1-carboxylic acid 4-(2-pyridin-3-yl-ethylcarbamoyloxy)-cyclohexylmethyl ester] | 30.3 | 22.3 |
| O=C(NCCc1ccncc1)OC1CCC(COC(=O)N2CCCC2)CC1 (centres unmarked) [Example 4, pyrrolidine-1-carboxylic acid 4-(2-pyridin-4-yl-ethylcarbamoyloxy)-cyclohexylmethyl ester] | 32.9 | 30.3 |
| O=C(NCCc1cccc[n+]1[O-])OC1CCC(COC(=O)N2CCCC2)CC1 (centres unmarked) [Example 5, pyrrolidine-1-carboxylic acid 4-[2-(1-oxy-pyridin-2-yl)-ethylcarbamoyloxy]-cyclohexylmethyl ester] | 48.7 | > 50 |
| O=C(NCCc1ccc[n+]([O-])c1)OC1CCC(COC(=O)N2CCCC2)CC1 (centres unmarked) [Example 6, pyrrolidine-1-carboxylic acid 4-[2-(1-oxy-pyridin-3-yl)-ethylcarbamoyloxy]-cyclohexylmethyl ester] | > 50 | 41.2 |
| O=C(NCc1ccccn1)OC1CCC(COC(=O)N2CCCC2)CC1 (centres unmarked) [Example 7, pyrrolidine-1-carboxylic acid 4-(pyridin-2-ylmethylcarbamoyloxy)-cyclohexylmethyl ester] | > 50 | > 50 |
| O=C(NCc1ccncc1)OC1CCC(COC(=O)N2CCCC2)CC1 (centres unmarked) [Example 9, pyrrolidine-1-carboxylic acid 4-(pyridin-4-ylmethylcarbamoyloxy)-cyclohexylmethyl ester] | > 50 | > 50 |
| CN(Cc1ccccn1)C(=O)OC1CCC(COC(=O)N2CCCC2)CC1 (centres unmarked) [Example 10, pyrrolidine-1-carboxylic acid 4-(methyl-pyridin-2-ylmethyl-carbamoyloxy)-cyclohexylmethyl ester] | 5.3 | 46.1 |
| O=C(NCc1cc[n+]([O-])cc1)OC1CCC(COC(=O)N2CCCC2)CC1 (centres unmarked) [Example 11, pyrrolidine-1-carboxylic acid 4-(1-oxy-pyridin-4-ylmethylcarbamoyloxy)-cyclohexylmethyl ester] | > 50 | 10.2 |
| O=C(NCc1ccc[n+]([O-])c1)OC1CCC(COC(=O)N2CCCC2)CC1 (centres unmarked) [Example 12, pyrrolidine-1-carboxylic acid 4-(1-oxy-pyridin-3-ylmethylcarbamoyloxy)-cyclohexylmethyl ester] | > 50 | > 50 |
| O=C(NCc1cccc[n+]1[O-])OC1CCC(COC(=O)N2CCCC2)CC1 (centres unmarked) [Example 13, pyrrolidine-1-carboxylic acid 4-(1-oxy-pyridin-2-ylmethylcarbamoyloxy)-cyclohexylmethyl ester] | > 50 | 27.9 |
| O=C(NCc1cccc(Cl)n1)OC1CCC(COC(=O)N2CCCC2)CC1 (centres unmarked) [Example 14, pyrrolidine-1-carboxylic acid 4-(6-chloro-pyridin-2-ylmethylcarbamoyloxy)-cyclohexylmethyl ester] | 22.3 | 21.7 |
| O=C(NCc1ccc(C(F)(F)F)nc1)OC1CCC(COC(=O)N2CCCC2)CC1 (centres unmarked) [Example 19, pyrrolidine-1-carboxylic acid 4-(6-trifluoromethyl-pyridin-3-ylmethylcarbamoyloxy)-cyclohexylmethyl ester] | 13.8 | 11.1 |
| Cc1cccc(NC(=O)OC2CCC(COC(=O)N3CCCC3)CC2)n1 (centres unmarked) [Example 22, pyrrolidine-1-carboxylic acid 4-(6-methyl-pyridin-2-ylcarbamoyloxy)-cyclohexylmethyl ester] | 21.7 | 35.8 |
| O=C(Nc1cc(Cl)nc(Cl)c1)OC1CCC(COC(=O)N2CCCC2)CC1 (centres unmarked) [Example 24, pyrrolidine-1-carboxylic acid 4-(2,6-dichloro-pyridin-4-ylcarbamoyloxy)-cyclohexylmethyl ester] | > 50 | > 50 |
| O=C(Nc1cccc[n+]1[O-])OC1CCC(COC(=O)N2CCCC2)CC1 (centres unmarked) [Example 25, pyrrolidine-1-carboxylic acid 4-(1-oxy-pyridin-2-ylcarbamoyloxy)-cyclohexylmethyl ester] | 15.5 | 24.9 |
| O=C(NCc1ccccn1)OC1CCC(COC(=O)N2CCCCC2)CC1 (centres unmarked) [Example 26] | 36.8 | 46.1 |
| O=C(NCc1ccccn1)OC1CCC(COC(=O)N2CCOCC2)CC1 (centres unmarked) [Example 27] | > 50 | 50 |

| Compound | IC50 [1] [µM] | IC50 [2] [µM] |
| --- | --- | --- |
| O=C(NCc1ccccn1)OC1CCC(COC(=O)N2CCNCC2)CC1 (centres unmarked) [Example 28, HCl salt] | 44.8 | > 50 |
| CN1CCN(C(=O)OCC2CCC(OC(=O)NCc3ccccc3)CC2)CC1 (centres unmarked) [Example 29, 4-methyl-piperazine-1-carboxylic acid 4-benzylcarbamoyloxy-cyclohexylmethyl ester] | > 50 | 46.1 |
| O=C(OC1CCC(COC(=O)N2CCCC2)CC1)c1ccccn1 (centres unmarked) [Example 30, pyridine-2-carboxylic acid 4-(pyrrolidine-1-carbonyloxymethyl)-cyclohexyl ester] | > 50 | > 50 |
| O=C(OC1CCC(COC(=O)N2CCCC2)CC1)c1cccnc1 (centres unmarked) [Example 31, pyridine-3-carboxylic acid 4-(pyrrolidine-1-carbonyloxymethyl)-cyclohexyl ester] | 21.1 | > 50 |
| O=C(OC1CCC(COC(=O)N2CCCC2)CC1)c1ccncc1 (centres unmarked) [Example 32, pyridine-4-carboxylic acid 4-(pyrrolidine-1-carbonyloxymethyl)-cyclohexyl ester] | 34.8 | 21.1 |
| O=C(Cc1ccccn1)OC1CCC(COC(=O)N2CCCC2)CC1 (centres unmarked) [Example 33, pyrrolidine-1-carboxylic acid 4-(2-pyridin-2-yl-acetoxy)-cyclohexylmethyl ester] | > 50 | > 50 |
| O=C(OCC1CCC(OCc2ccccc2)CC1)N1CCCC1 (centres unmarked) [Example 34, pyrrolidine-1-carboxylic acid 4-benzyloxy-cyclohexylmethyl ester] | 27.1 | 24.9 |
| O=C(OCC1CCC(OCc2ccccn2)CC1)N1CCCC1 (centres unmarked) [Example 35, pyrrolidine-1-carboxylic acid 4-(pyridin-2-ylmethoxy)-cyclohexylmethyl ester] | 50 | > 50 |
| O=C(OCC1CCC(OCc2cccc[n+]2[O-])CC1)N1CCCC1 (centres unmarked) [Example 36, pyrrolidine-1-carboxylic acid 4-(1-oxy-pyridin-2-ylmethoxy)-cyclohexylmethyl ester] | > 50 | > 50 |
| O=C(OCC1CCC(NCc2ccccc2)CC1)N1CCCC1 (centres unmarked) [Example 37, pyrrolidine-1-carboxylic acid 4-benzylaminocyclohexylmethyl ester HCl salt] | > 50 | 46.1 |
| COc1ccc(CNC2CCC(COC(=O)N3CCCC3)CC2)cc1 (centres unmarked) [Example 38, pyrrolidine-1-carboxylic acid 4-(4-methoxy-benzylamino)-cyclohexylmethyl ester HCl salt] | > 50 | 35.8 |
| COc1ccc(CCNC2CCC(COC(=O)N3CCCC3)CC2)cc1 (centres unmarked) [Example 39, pyrrolidine-1-carboxylic acid 4-[2-(4-methoxy-phenyl)-ethylamino]-cyclohexylmethyl ester HCl salt] | > 50 | > 50 |
| O=C(NC1CCC(COC(=O)N2CCCC2)CC1)OCc1cccnc1 (centres unmarked) [Example 41, pyrrolidine-1-carboxylic acid 4-(pyridin-3-ylmethoxycarbonylamino)-cyclohexylmethyl ester] | > 50 | 50 |
| O=C(NC1CCC(COC(=O)N2CCCC2)CC1)OCc1ccnc(Cl)c1 (centres unmarked) [Example 43, pyrrolidine-1-carboxylic acid 4-(2-chloro-pyridin-4-ylmethoxycarbonylamino)-cyclohexylmethyl ester] | 12 | 10.5 |
| O=C(NC1CCC(COC(=O)N2CCCC2)CC1)OCc1cccnc1Cl (centres unmarked) [Example 44, pyrrolidine-1-carboxylic acid 4-(2-chloro-pyridin-3-ylmethoxycarbonylamino)-cyclohexylmethyl ester] | 16.8 | 21.7 |
| O=C(NC1CCC(COC(=O)N2CCCC2)CC1)OCc1cc(Cl)nc(Cl)c1 (centres unmarked) [Example 45, pyrrolidine-1-carboxylic acid 4-(2,6-dichloro-pyridin-4-ylmethoxycarbonylamino)-cyclohexylmethyl ester] | 7.5 | 9.9 |
| O=C(NC1CCC(COC(=O)N2CCCC2)CC1)OCc1cccc(Cl)n1 (centres unmarked) [Example 46, pyrrolidine-1-carboxylic acid 4-(6-chloro-pyridin-2-ylmethoxycarbonylamino)-cyclohexylmethyl ester] | 26.3 | 32 |
| O=C(NC1CCC(COC(=O)N2CCCC2)CC1)OCc1ccc(Cl)nc1 (centres unmarked) [Example 47, pyrrolidine-1-carboxylic acid 4-(6-chloro-pyridin-3-ylmethoxycarbonylamino)-cyclohexylmethyl ester] | 21.1 | 13.1 |
